In patent publication US8530493B2, “Indolopyridines as Eg5 kinesin modulators” (4SC AG, priority 2006, dated 2013):

The molecules below were run on RKO p21 uninduced (proliferating) colon adenocarcinoma cells (assay: Alamar Blue cell viability assay, RKO p21 uninduced (proliferating)). Details: Homo sapiens, Table B3, anti-proliferative/cytotoxic activity, 72 hours, read-out: −log EC50 RKO p21 uninduced (proliferating) (converted).
Type: cell-based
How it was run: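 RKO p21 or p27 subclones grown without Ponasterone A, i.e. proliferating, exposed 24 h after seeding to semi-log compound dilutions in DMEM/10% FCS (1% DMSO controls) for 72 h at 37° C. Alamar Blue fluorescence (544/590 nm) read relative to untreated cells; EC50 from dose-response curves, given as −log EC50 (mol/l).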

Row | SMILES | EC50 [nM]
1 | CC(C)CNCCCN1C(=O)N2[C@H](c3cccc(O)c3)c3[nH]c4ccc(Br)cc4c3C[C@@]2(C)C1=O (racemic) [Example 213, (3aSR,10RS)-6-Bromo-10-(3-hydroxy-phenyl)-2-(3-isobutylamino-propyl)-3a-methyl-3a,4,9,10-tetrahydro-2,9,10a-triaza-cyclopenta[b]fluorene-1,3-dione] | ≤ 39.8
2 | C[C@@]12Cc3c([nH]c4ccc(Br)cc34)[C@@H](c3cccc(O)c3)N1C(=O)N(CCCNCC1CC1)C2=O (racemic) [Example 234, (3aSR,10RS)-6-Bromo-2-[3-(cyclopropylmethyl-amino)-propyl]-10-(3-hydroxy-phenyl)-3a-methyl-3a,4,9,10-tetrahydro-2,9,10a-triaza-cyclopenta[b]fluorene-1,3-dione] | ≤ 39.8
3 | C=CCNCCCN1C(=O)N2[C@H](c3cccc(O)c3)c3[nH]c4cc(F)c(Cl)cc4c3C[C@@]2(C)C1=O (racemic) [Example 465, (3aSR,10RS)-2-(3-Allylamino-propyl)-6-chloro-7-fluoro-10-(3-hydroxy-phenyl)-3a-methyl-3a,4,9,10-tetrahydro-2,9,10a-triaza-cyclopenta[b]fluorene-1,3-dione] | 39.8 to 251
4 | CCN(C)CCCN1C(=O)N2[C@H](c3cccc(O)c3)c3[nH]c4cc(F)c(Cl)cc4c3C[C@@]2(C)C1=O (racemic) [Example 467, (3aSR,10RS)-6-Chloro-2-[3-(ethyl-methyl-amino)-propyl]-7-fluoro-10-(3-hydroxy-phenyl)-3a-methyl-3a,4,9,10-tetrahydro-2,9,10a-triaza-cyclopenta[b]fluorene-1,3-dione] | ≤ 39.8
5 | CN1CCN(CCCN2C(=O)N3[C@H](c4cccc(O)c4)c4[nH]c5ccc(OC(F)F)cc5c4C[C@@]3(C)C2=O)CC1 (racemic) [Example 240, (3aSR,10RS)-6-(1,1-Difluoro-methoxy)-10-(3-hydroyx-phenyl)-3a-methyl-2-[3-(4-methyl-piperazin-1-yl)-propyl]-3a,4,9,10-tetrahydro-2,9,10a-triaza-cyclopenta[b]fluorene-1,3-dione] | 39.8 to 251
6 | C[C@@]12Cc3c([nH]c4ccc(OC(F)F)cc34)[C@@H](c3cccc(O)c3)N1C(=O)N(CCCN1CCCC1)C2=O (racemic) [Example 237, (3aSR,10RS)-6-(1,1-Difluoro-methoxy)-10-(3-hydroxy-phenyl)-3a-methyl-2-(3-pyrrolidin-1-yl-propyl)-3a,4,9,10-tetrahydro-2,9,10a-triaza-cyclopenta[b]fluorene-1,3-dione] | ≤ 39.8
7 | COc1cc2c3c([nH]c2cc1F)[C@@H](c1cccc(O)c1)N1C(=O)N(CCCN2CCN(C)CC2)C(=O)[C@]1(C)C3 (racemic) [Example 325, (3aSR,10RS)-7-Fluoro-10-(3-hydroxy-phenyl)-6-methoxy-3a-methyl-2-[3-(4-methyl-piperazin-1-yl)-propyl]-3a,4,9,10-tetrahydro-2,9,10a-triaza-cyclopenta[b]fluorene-1,3-dione] | 39.8 to 251
8 | CCOc1ccc2[nH]c3c(c2c1)C[C@@]1(C)C(=O)N(CCN(CC)CCOC)C(=O)N1[C@@H]3c1cccc(O)c1 (racemic) [Example 299, (3aSR,10RS)-6-Ethoxy-2-{2-[ethyl-(2-methoxy-ethyl)-amino]-ethyl}-10-(3-hydroxy-phenyl)-3a-methyl-3a,4,9,10-tetrahydro-2,9,10a-triaza-cyclopenta[b]fluorene-1,3-dione] | 39.8 to 251
9 | CCN(CCCN1C(=O)N2[C@H](c3cccc(O)c3)c3[nH]c4ccc(Cl)cc4c3C[C@@]2(C)C1=O)CCOC (racemic) [Example 397, (3aSR,10RS)-6-Chloro-2-{3-[ethyl-(2-methoxy-ethyl)-amino]-propyl}-10-(3-hydroxy-phenyl)-3a-methyl-3a,4,9,10-tetrahydro-2,9,10a-triaza-cyclopenta[b]fluorene-1,3-dione] | ≤ 39.8
10 | CCOc1ccc2[nH]c3c(c2c1)C[C@@]1(C)C(=O)N(CCCN2CCC2)C(=O)N1[C@@H]3c1cccc(O)c1 (racemic) [Example 198, (3aSR,10RS)-2-(3-Azetidin-1-yl-propyl)-6-ethoxy-10-(3-hydroxy-phenyl)-3a-methyl-3a,4,9,10-tetrahydro-2,9,10a-triaza-cyclopenta[b]fluorene-1,3-dione] | 39.8 to 251
11 | CNCCN1C(=O)N2[C@H](c3cccc(O)c3)c3[nH]c4ccc(Br)cc4c3C[C@@]2(C)C1=O (racemic) [Example 394, (3aSR,10RS)-6-Bromo-10-(3-hydroxy-phenyl)-3a-methyl-2-(2-methylamino-ethyl)-3a,4,9,10-tetrahydro-2,9,10a-triaza-cyclopenta[b]fluorene-1,3-dione] | ≤ 39.8
12 | C[C@@]12Cc3c([nH]c4cc(F)c(Cl)cc34)[C@@H](c3cccc(O)c3)N1C(=O)N(CCN1CCCCCC1)C2=O (racemic) [Example 361, (3aSR,10RS)-2-(2-Azepan-1-yl-ethyl)-6-chloro-7-fluoro-10-(3-hydroxy-phenyl)-3a-methyl-3a,4,9,10-tetrahydro-2,9,10a-triaza-cyclopenta[b]fluorene-1,3-dione] | 39.8 to 251
13 | COc1cc2c3c([nH]c2cc1F)[C@@H](c1cccc(O)c1)N1C(=O)N(CCN2CCCC2)C(=O)[C@]1(C)C3 (racemic) [Example 261, (3aSR,10RS)-7-Fluoro-10-(3-hydroxy-phenyl)-6-methoxy-3a-methyl-2-(2-pyrrolidin-1-yl-ethyl)-3a,4,9,10-tetrahydro-2,9,10a-triaza-cyclopenta[b]fluorene-1,3-dione] | 39.8 to 251
14 | CCOc1ccc2[nH]c3c(c2c1)C[C@@]1(C)C(=O)N(CCCN2CC=CC2)C(=O)N1[C@@H]3c1cccc(O)c1 (racemic) [Example 222, (3aSR,10RS)-2-[3-(2,5-Dihydro-pyrrol-1-yl)-propyl]-6-ethoxy-10-(3-hydroxy-phenyl)-3a-methyl-3a,4,9,10-tetrahydro-2,9,10a-triaza-cyclopenta[b]fluorene-1,3-dione] | 39.8 to 251
15 | COCCNCCCN1C(=O)N2[C@H](c3cccc(O)c3)c3[nH]c4ccc(Br)cc4c3C[C@@]2(C)C1=O (racemic) [Example 214, (3aSR,10RS)-6-Bromo-10-(3-hydroxy-phenyl)-2-[3-(2-methoxy-ethylamino)-propyl]-3a-methyl-3a,4,9,10-tetrahydro-2,9,10a-triaza-cyclopenta[b]fluorene-1,3-dione] | ≤ 39.8
16 | C=CCNCCCN1C(=O)N2[C@H](c3cccc(O)c3)c3[nH]c4cc(F)c(OC)cc4c3C[C@@]2(C)C1=O (racemic) [Example 334, (3aSR,10RS)-2-(3-Allylamino-propyl)-7-fluoro-10-(3-hydroxy-phenyl)-6-methoxy-3a-methyl-3a,4,9,10-tetrahydro-2,9,10a-triaza-cyclopenta[b]fluorene-1,3-dione] | 39.8 to 251
17 | CCOc1ccc2[nH]c3c(c2c1)C[C@@]1(C)C(=O)N(CCCN2CCC(C)CC2)C(=O)N1[C@@H]3c1cccc(O)c1 (racemic) [Example 224, (3aSR,10RS)-6-Ethoxy-10-(3-hydroxy-phenyl)-3a-methyl-2-[3-(4-methyl-piperidin-1-yl)-propyl]-3a,4,9,10-tetrahydro-2,9,10a-triaza-cyclopenta[b]fluorene-1,3-dione] | 39.8 to 251
18 | CCN(C)CCCN1C(=O)N2[C@H](c3cccc(O)c3)c3[nH]c4ccc(Br)cc4c3C[C@@]2(C)C1=O (racemic) [Example 216, (3aSR,10RS)-6-Bromo-2-[3-(ethyl-methyl-amino)-propyl]-10-(3-hydroxy-phenyl)-3a-methyl-3a,4,9,10-tetrahydro-2,9,10a-triaza-cyclopenta[b]fluorene-1,3-dione] | ≤ 39.8
19 | COc1ccc2[nH]c3c(c2c1)C[C@@]1(C)C(=O)N(CCCCl)C(=O)N1[C@@H]3c1cccc(O)c1 [Example 55a, (3aS,10R)-2-(3-Chloro-propyl)-10-(3-hydroxy-phenyl)-6-methoxy-3a-methyl-3a,4,9,10-tetrahydro-2,9,10a-triaza-cyclopenta[b]fluorene-1,3-dione] | 39.8 to 251
20 | CC(C)N(C)CCCN1C(=O)N2[C@H](c3cccc(O)c3)c3[nH]c4ccc(OC(F)F)cc4c3C[C@@]2(C)C1=O (racemic) [Example 179, (3aSR,10RS)-6-(1,1-Difluoro-methoxy)-10-(3-hydroxy-phenyl)-2-[3-(isopropyl-methyl-amino)-propyl]-3a-methyl-3a,4,9,10-tetarhydro-2,9,10a-triaza-cyclopenta[b]fluorene-1,3-dione] | ≤ 39.8
21 | COc1cc2c3c([nH]c2cc1F)[C@@H](c1cccc(O)c1)N1C(=O)N(CCNCC(C)C)C(=O)[C@]1(C)C3 (racemic) [Example 252, (3aSR,10RS)-7-Fluoro-10-(3-hydroxy-phenyl)-2-(2-isobutylamino-ethyl)-6-methoxy-3a-methyl-3a,4,9,10-tetrahydro-2,9,10-triaza-cyclopenta[b]fluorene-1,3-dione] | 39.8 to 251
22 | CCN(CCCN1C(=O)N2[C@H](c3cccc(O)c3)c3[nH]c4cc(F)c(Cl)cc4c3C[C@@]2(C)C1=O)CCOC (racemic) [Example 471, (3aSR,10RS)-6-Chloro-2-{3-[ethyl-(2-methoxy-ethyl)-amino]-propyl}-7-fluoro-10-(3-hydroxy-phenyl)-3a-methyl-3a,4,9,10-tetrahydro-2,9,10a-triaza-cyclopenta[b]fluorene-1,3-dione] | 39.8 to 251
23 | CCNCCCN1C(=O)N2[C@H](c3cccc(O)c3)c3[nH]c4ccc(OCC)cc4c3C[C@@]2(C)C1=O (racemic) [Example 187, (3aSR,10RS)-6-Ethoxy-2-(3-ethylamino-propyl)-10-(3-hydroxy-phenyl)-3a-methyl-3a,4,9,10-tetrahydro-2,9,10a-triaza-cyclopenta[b]fluorene-1,3-dione] | 39.8 to 251
24 | CNCCN1C(=O)N2[C@H](c3cccc(O)c3)c3[nH]c4cc(F)c(Cl)cc4c3C[C@@]2(C)C1=O (racemic) [Example 337, (3aSR,10RS)-6-Chloro-7-fluoro-10-(3-hydroxy-phenyl)-3a-methyl-2-(2-methylamino-ethyl)-3a,4,9,10-tetrahydro-2,9,10a-triaza-cyclopenta[b]fluorene-1,3-dione] | ≤ 39.8
